According to patent US10589078B2, “Metallic microneedles” (MICRODERMICS INC., priority 2013, dated 2020):

Format: in vitro ADME
Conditions: pig, 3 min, 174 μM
Protocol: A 500 μm tall prototype nickel microneedle 120 fabricated using the method depicted in FIGS. 1A-1G was used to inject a fluorescent chemotherapeutic drug (doxorubicin) into pigskin. A backing plate of the microneedle was bonded to a drug container that was connected to a conventional syringe via a flexible plastic capillary tube. The syringe was filled with a 174 μM solution of doxorubicin in water. The syringe was placed in a commercial syringe pump system (from KD Scientific™ of Holliston, Mass.). The microneedle 120 was applied to a shaved pigskin sample. The pump was set to push the plunger to generate a constant flow rate of 0.2 μL/minute for 3 minutes. This flow rate was selected based on a study investigating the efficiency of transdermal drug injection using silicon microneedles (U. O. Häfeli, et al., (2009), Biomed. Microdevices, Vol. 11, pp. 943-950) which found an average delivery rate of 0.2 μL/minute through each needle in an injection trial. After the injection, the skin was cleaned and then scanned using confocal microscopy.

## COc1cccc2c1C(=O)c1c(O)c3c(c(O)c1C2=O)C[C@@](O)(C(=O)CO)C[C@@H]3O[C@H]1C[C@H](N)[C@H](O)[C@H](C)O1 [doxorubicin]
  depth of penetration of doxorubicin into the skin: approximately 130 μm
